{"source": "patent US7767409B2", "about": "“Method for detection of substance bound to nuclear receptor” (Fujikura Kasei Co., Ltd., priority 2005, dated 2010)", "format_in_all_cases": "biochemical", "key": {"[1]": {"biological_target": "T1, human liver X receptor α-GST fusion protein (LXR-α) (Homo sapiens, UniProt Q13133)", "T1 construct": "made in house", "T1 sequence (Q13133 209-447 limits assumed)": "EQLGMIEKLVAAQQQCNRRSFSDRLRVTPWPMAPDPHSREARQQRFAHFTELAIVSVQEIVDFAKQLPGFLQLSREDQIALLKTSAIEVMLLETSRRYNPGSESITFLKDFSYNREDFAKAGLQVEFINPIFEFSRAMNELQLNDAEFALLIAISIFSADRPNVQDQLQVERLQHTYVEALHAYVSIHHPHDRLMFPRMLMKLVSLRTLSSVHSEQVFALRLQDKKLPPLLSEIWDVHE", "experiment": "Agonist assay with nuclear receptor-GST fusion protein, LXR-α", "conditions": "FIG. 9"}, "[2]": {"biological_target": "T2, human liver X receptor β-GST fusion protein (LXR-β) (Homo sapiens, UniProt P55055)", "T2 construct": "made in house", "T2 sequence (P55055 222-460 limits assumed)": "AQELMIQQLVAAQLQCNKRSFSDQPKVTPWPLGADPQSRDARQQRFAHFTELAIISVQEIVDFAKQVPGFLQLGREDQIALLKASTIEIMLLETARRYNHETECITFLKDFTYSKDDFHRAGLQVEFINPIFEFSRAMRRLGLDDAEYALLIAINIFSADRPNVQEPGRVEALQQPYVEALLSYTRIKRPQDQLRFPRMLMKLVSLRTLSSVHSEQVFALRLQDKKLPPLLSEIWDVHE", "experiment": "Agonist assay with nuclear receptor-GST fusion protein, LXR-β", "conditions": "FIG. 9"}, "[3]": {"biological_target": "T3, human estrogen receptor β-GST fusion protein (ER-β) (Homo sapiens, UniProt Q92731)", "T3 construct": "made in house; host or cells: Escherichia coli BL21", "T3 sequence (Q92731 264-498 limits assumed)": "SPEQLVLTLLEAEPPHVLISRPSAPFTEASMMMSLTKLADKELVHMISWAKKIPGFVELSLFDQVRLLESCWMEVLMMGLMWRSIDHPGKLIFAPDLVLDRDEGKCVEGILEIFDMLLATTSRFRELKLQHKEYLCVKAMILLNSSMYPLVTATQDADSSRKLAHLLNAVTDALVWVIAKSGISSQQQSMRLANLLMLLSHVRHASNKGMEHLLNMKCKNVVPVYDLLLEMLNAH", "experiment": "Assay of ligand using coactivator SRC1-bound plate, ER-β", "conditions": "HRP-labeled anti-GST antibody, 450 nm, FIG. 6"}, "[4]": {"biological_target": "T4, human estrogen receptor α-GST fusion protein (ER-α) (Homo sapiens, UniProt P03372)", "T4 construct": "made in house; host or cells: Escherichia coli BL21", "T4 sequence (P03372 311-547 limits assumed)": "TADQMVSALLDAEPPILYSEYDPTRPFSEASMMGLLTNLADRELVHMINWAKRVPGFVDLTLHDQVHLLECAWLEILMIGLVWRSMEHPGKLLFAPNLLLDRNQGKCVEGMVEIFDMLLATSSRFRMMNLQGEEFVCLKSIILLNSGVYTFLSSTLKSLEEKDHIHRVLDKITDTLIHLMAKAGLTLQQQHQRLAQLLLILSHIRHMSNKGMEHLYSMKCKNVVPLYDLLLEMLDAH", "experiment": "Assay of ligand using coactivator SRC1-bound plate, ER-α (present detection method)", "conditions": "HRP-labeled anti-GST antibody, 450 nm, FIG. 6", "method": "In a manner similar to that of the aforementioned existing method, a purified ER-α product (10 mL) was prepared from an ER-α cell culture (1 L). By use of this product, the amount of an assay reagent prepared was examined as described hereinbelow. Avidin was immobilized on a plate in advance, and a biotinylated coactivator SRC1 (0.01 mg/mL, dissolved in DMSO) was prepared into a solution (final concentration: […]) by use of a washing buffer. The thus-prepared solution was dispensed into the plate (100 μL/well), followed by impregnation for one hour, to thereby prepare an SRC1-bound plate. […] After reaction with shaking for one hour, the plate was washed with a washing buffer, and an HRP-labeled anti-GST antibody solution prepared by diluting the antibody with a washing buffer by a factor of 1/40,000 was dispensed into the plate (100 μL/well), followed by reaction with shaking for one hour. After reaction, the plate was washed with a washing buffer; a color-developing reagent was added to the plate (100 μL/well); and the plate was allowed to stand still for 10 minutes for color development reaction. Color development reaction was stopped by use of 1 N sulfuric acid, followed by measurement at a wavelength of 450 nm by means of a plate reader.\nAn HRP-labeled anti-GST antibody was employed for assay."}}, "data": [{"compound": "O=S(=O)(c1ccccc1)N(CC(F)(F)F)c1ccc(C(O)(C(F)(F)F)C(F)(F)F)cc1", "note": "[TO-901317]", "values": [{"measurement": "OD, agonist dose dependence", "setting": "[1]", "result": "OD was increased in a manner dependent on the dose of the corresponding agonist"}, {"measurement": "OD, agonist dose dependence", "setting": "[2]", "result": "OD was increased in a manner dependent on the dose of the corresponding agonist"}]}, {"compound": "CC(C)(c1ccc(O)cc1)c1ccc(O)cc1", "note": "[bisphenol A]", "values": [{"measurement": "OD (binding of receptor to immobilized coactivator), agonist mode", "setting": "[3]", "result": "increase in OD was observed"}, {"measurement": "OD (binding of receptor to immobilized coactivator), agonist mode", "setting": "[4]", "result": "increase in OD was observed"}]}, {"compound": "CC/C(=C(/CC)c1ccc(O)cc1)c1ccc(O)cc1", "note": "[diethylstilbestrol]", "values": [{"measurement": "OD (binding of receptor to immobilized coactivator), agonist mode", "setting": "[3]", "result": "increase in OD was observed"}]}, {"compound": "nonylphenol", "values": [{"measurement": "OD (binding of receptor to immobilized coactivator), agonist mode", "setting": "[3]", "result": "increase in OD was observed"}, {"measurement": "OD (binding of receptor to immobilized coactivator), agonist mode", "setting": "[4]", "result": "increase in OD was observed"}]}]}
